Results on two compounds are retold here after ChEMBL document CHEMBL4334495, “Design and Biological Evaluation of m-Xylene Thioether-Stapled Short Helical Peptides Targeting the HIV-1 gp41 Hexameric Coiled-Coil Fusion Complex” (J Med Chem, 2019).

Starred links: 1 amine or outer side, 2 acyl side, 3 side chain; linkers in the order of their positions; H or OH if unused. Positions of bridges follow the written chain, without caps; N, C: chain ends. Non-standard residues stand in square brackets, D forms with d. Residues, ends and D or L forms follow the SMILES beside them. ξ: configuration not given here. mXylylene = c1cc(C[*:1])cc(C[*:2])c1; ξhCys = NC(CCS)C(=O)O

A word on the EC50: it is the concentration that produces a half-maximal response. A word on the CC50: it is the concentration giving 50% cytotoxicity.

Data set [1] has as its system Human immunodeficiency virus 1. Briefly: Antiviral activity against R5 tropic HIV-1 subtype-B Bal infected in human MT2 cells or CEMx174 5.25 M7 cells assessed as reduction in p24 Gag protein production at 12:1 ratio of hCS6ERE to compound measured at 4 days post-infection by ELISA. It counts as functional, cell-based, HIV-1 group M. The conditions noted are these: Human immunodeficiency virus 1, Bal, 96 h. (In general: In an ELISA, binding on a coated surface is turned into a signal by an enzyme label.)

Data set [2] relates to Human immunodeficiency virus 1. The data set can be described thus: Ratio of EC50 for antiviral activity against T20 resistant HIV1 NL4-3 harboring with V38E/N42S mutant infected in human MT2 cells or CEMx174 5.25 M7 cells in absence of hCS6ERE to EC50 for antiviral activity against T20 resistant HIV1 NL4-3 harboring with V38E/N42S mutant infected in human MT2 cells or CEMx174 5.25 M7 cells at 3500:1 hCS6ERE to compound ratio. Format: functional.

Data set [3] has as its system Human immunodeficiency virus 1. Briefly: Ratio of EC50 for antiviral activity against R5 tropic HIV-1 subtype-B Bal infected in human MT2 cells or CEMx174 5.25 M7 cells in absence of hCS6ERE to EC50 for antiviral activity against R5 tropic HIV-1 subtype-B Bal infected in human MT2 cells or CEMx174 5.25 M7 cells at 24:1 ratio of hCS6ERE to compound. Format: functional, HIV-1 group M.

For data set [4], the system named is Human immunodeficiency virus 1. The data set can be described thus: Antiviral activity against T20 resistant HIV1 NL4-3 harboring with V38E/N42S mutant infected in human MT2 cells or CEMx174 5.25 M7 cells assessed as reduction in p24 Gag protein production at 7000:1 hCS6ERE to compound ratio measured at 4 days post-infection by ELISA. It counts as functional, organism-based.

For data set [5], the system named is Human immunodeficiency virus 1. The data set can be described thus: Antiviral activity against T20 resistant HIV1 NL4-3 harboring with V38E/N42T mutant infected in human MT2 cells or CEMx174 5.25 M7 cells assessed as reduction in p24 Gag protein production at 300:1 hCS6ERE to compound ratio measured at 4 days post-infection by ELISA. Format: functional, organism-based.

Data set [6] deals with Human immunodeficiency virus 1. Briefly: Antiviral activity against T2635 resistant HIV1 LAI harboring Q66R mutant infected in human MT2 cells or CEMx174 5.25 M7 cells assessed as reduction in p24 Gag protein production at 50:1 ratio of hCS6ERE to compound measured at 4 days post infection by ELISA. It counts as functional, organism-based, M:B_Lai.
Data set [7] concerns the target Envelope glycoprotein gp160 (Human immunodeficiency virus 1) (UniProt Q6QLK5). Briefly: Synergistic inhibition of HIV1 gp41-induced cell-cell fusion between viral envelope expressing human HL2/3 cells to CD4/CCR5 receptor expressing TZM-bl cells assessed as combination index at 4:1 compound to HP23 ratio incubated for 6 hrs by luciferase reporter gene assay. In general terms: A reporter such as luciferase makes a cellular process visible.

Data set [8] deals with Human immunodeficiency virus 1. The data set can be described thus: Ratio of EC50 for antiviral activity against T20 resistant HIV1 NL4-3 harboring with V38E/N42T mutant infected in human MT2 cells or CEMx174 5.25 M7 cells in absence of HP23 to EC50 for Antiviral activity against T20 resistant HIV1 NL4-3 harboring with V38E/N42T mutant infected in human MT2 cells or CEMx174 5.25 M7 cells at 600:1 compound to HP23 ratio. It counts as functional.

Data set [9] relates to Human immunodeficiency virus 1. The data set can be described thus: Synergistic antiviral activity against HIV1 NL4-3 infected in human MT2 cells or CEMx174 5.25 M7 cells assessed as reduction in p24 Gag protein production by measuring combination index at 20:1 compound to HP23 ratio measured at 4 days post-infection by ELISA. It counts as functional.
The target of data set [10] is Envelope glycoprotein gp160 (Human immunodeficiency virus 1) (UniProt Q6QLK5). Briefly: Synergistic inhibition of HIV1 gp41-induced cell-cell fusion between viral envelope expressing human HL2/3 cells to CD4/CCR5 receptor expressing TZM-bl cells assessed as combination index at 2:1 compound to HP23 ratio incubated for 6 hrs by luciferase reporter gene assay.
Envelope glycoprotein gp160 (Human immunodeficiency virus 1), sequence (Q6QLK5 1-814): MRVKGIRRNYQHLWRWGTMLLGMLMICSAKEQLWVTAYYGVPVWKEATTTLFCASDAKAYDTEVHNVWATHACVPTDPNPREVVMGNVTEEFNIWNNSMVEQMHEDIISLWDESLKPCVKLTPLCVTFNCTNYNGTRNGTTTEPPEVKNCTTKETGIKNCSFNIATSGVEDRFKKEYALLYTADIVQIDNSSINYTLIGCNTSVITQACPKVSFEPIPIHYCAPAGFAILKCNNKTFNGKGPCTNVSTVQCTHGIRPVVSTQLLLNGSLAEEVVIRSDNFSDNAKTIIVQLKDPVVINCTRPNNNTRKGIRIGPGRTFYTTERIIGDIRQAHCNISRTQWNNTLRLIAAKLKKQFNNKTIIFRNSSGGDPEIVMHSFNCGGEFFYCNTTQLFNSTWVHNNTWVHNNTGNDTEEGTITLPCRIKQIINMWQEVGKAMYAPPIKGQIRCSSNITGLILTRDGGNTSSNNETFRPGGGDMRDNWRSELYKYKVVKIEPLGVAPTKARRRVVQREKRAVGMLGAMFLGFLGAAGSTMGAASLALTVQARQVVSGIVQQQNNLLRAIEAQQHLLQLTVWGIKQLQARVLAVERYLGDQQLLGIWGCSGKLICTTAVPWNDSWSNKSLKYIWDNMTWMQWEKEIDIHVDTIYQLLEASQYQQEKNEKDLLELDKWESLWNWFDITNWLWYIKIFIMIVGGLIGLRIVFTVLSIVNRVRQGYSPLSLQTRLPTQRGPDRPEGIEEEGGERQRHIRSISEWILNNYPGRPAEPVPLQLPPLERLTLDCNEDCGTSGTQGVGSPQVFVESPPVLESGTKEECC
Data set [11] has as its system Human immunodeficiency virus 1. Briefly: Antiviral activity against R5 tropic HIV-1 subtype-B Bal infected in human MT2 cells or CEMx174 5.25 M7 cells assessed as reduction in p24 Gag protein production at 12:1 ratio of compound to HP23 measured at 4 days post-infection by ELISA. It counts as functional, cell-based, HIV-1 group M. The conditions noted are these: Human immunodeficiency virus 1, Bal, 96 h.

Data set [12] has as its system Human immunodeficiency virus 1. Briefly: Antiviral activity against HIV1 NL4-3 infected in human MT2 cells or CEMx174 5.25 M7 cells assessed as reduction in p24 Gag protein production at 20:1 compound to HP23 ratio measured at 4 days post-infection by ELISA. Format: functional, organism-based. The conditions noted are these: Human immunodeficiency virus 1, NL4-3, 96 h.

The subject of data set [13] is Human immunodeficiency virus 1. The data set can be described thus: Antiviral activity against HIV1 NL4-3 infected in human MT2 cells or CEMx174 5.25 M7 cells assessed as reduction in p24 Gag protein production at 5:1 compound to HP23 ratio measured at 4 days post-infection by ELISA. It counts as functional, organism-based. To be noted: Human immunodeficiency virus 1, NL4-3, 96 h.

Data set [14] has as its system Human immunodeficiency virus 1. Briefly: Antiviral activity against X4 tropic HIV-1 subtype-B 3B infected in human MT2 cells or CEMx174 5.25 M7 cells assessed as reduction in p24 Gag protein production at 24:1 compound to HP23 ratio measured at 4 days post-infection by ELISA. It counts as functional, cell-based, HIV-1 group M. The conditions noted are these: Human immunodeficiency virus 1, 3B, 96 h.

Data set [15] has as its system Human immunodeficiency virus 1. The data set can be described thus: Antiviral activity against T20 resistant HIV1 NL4-3 harboring with V38E/N42T mutant infected in human MT2 cells or CEMx174 5.25 M7 cells assessed as reduction in p24 Gag protein production at 600:1 compound to HP23 ratio measured at 4 days post-infection by ELISA. Format: functional, organism-based.

Data set [16] concerns Human immunodeficiency virus 1. The data set can be described thus: Ratio of EC50 for antiviral activity against HIV1 NL4-3 infected in human MT2 cells or CEMx174 5.25 M7 cells in absence of HP23 to EC50 for antiviral activity against HIV1 NL4-3 infected in human MT2 cells or CEMx174 5.25 M7 cells at 10:1 compound to HP23 ratio. It counts as functional.
For data set [17], the target named is Envelope glycoprotein gp160 (Human immunodeficiency virus 1) (UniProt Q6QLK5). Briefly: Binding affinity to HIV1 GP41 using GP41 NHR derived N36 peptide assessed as molecular weight at 150 uM incubated for 30 mins by sedimentation Velocity analysis.
In data set [18] the test system is Human immunodeficiency virus 1. Briefly: Ratio of EC50 for antiviral activity against T2635 resistant HIV1 LAI harboring Q66R mutant infected in human MT2 cells or CEMx174 5.25 M7 cells in absence of HP23 to antiviral activity against T2635 resistant HIV1 LAI harboring Q66R mutant infected in human MT2 cells or CEMx174 5.25 M7 cells at 12.5:1 ratio of compound to HP23. It counts as functional, M:B_Lai.

Data set [19] deals with Human immunodeficiency virus 1. Briefly: Synergistic antiviral activity against T2635 resistant HIV1 LAI harboring Q66R mutant infected in human MT2 cells or CEMx174 5.25 M7 cells assessed as reduction in p24 Gag protein production by measuring combination index at 25:1 compound ratio measured at 4 days post infection by ELISA. Format: functional, M:B_Lai.
In data set [20] the test system is Human immunodeficiency virus 1. The data set can be described thus: Synergistic antiviral activity against R5 tropic HIV-1 subtype-B Bal infected in human MT2 cells or CEMx174 5.25 M7 cells assessed as reduction in p24 Gag protein production by measuring combination index at 12:1 ratio of hCS6ERE to compound measured at 4 days post-infection by ELISA. Format: functional, HIV-1 group M.

Data set [21] is described as follows: Cytotoxicity against human TZM-bl cells assessed as reduction in viability after 2 days by XTT assay. It counts as cell-based. In general terms: Tetrazolium dyes change colour on reduction, which living cells bring about.

Turning to H-EMTWEEWEKKIEEYTKKIEEILK-OH, the EC50 was determined as 0.5 nM in data set [1], 0.4 nM in [4], 1.4 nM in data set [5] and 0.5 nM in data set [6]. Moreover, the entries for the “Ratio EC50” value in data set [2] and in data set [3] were 2.3 and 5.2, respectively.

For the compound `CC[C@H](C)[C@H](NC(C)=O)C(=O)N[C@@H](CCC(=O)O)C(=O)N[C@@H](CCC(=O)O)C(=O)N[C@@H](CC(C)C)C(=O)N[C@H](C(=O)NC1CCSCc2cccc(c2)CSCCC(C(=O)N[C@@H](CCC(N)=O)C(=O)N[C@@H](CCC(N)=O)C(=O)N[C@@H](CCCNC(=N)N)C(=O)N[C@@H](CCCCN)C(=O)N[C@@H](CC(N)=O)C(=O)N[C@@H](CCC(=O)O)C(=O)N[C@@H](CCC(=O)O)C(=O)N[C@@H](C)C(=O)N[C@@H](CC(C)C)C(=O)N[C@@H](CCCNC(=N)N)C(=O)N[C@@H](CCC(=O)O)C(=O)N[C@@H](CC(C)C)C(N)=O)NC(=O)[C@H](CCC(N)=O)NC(=O)[C@H](C)NC(=O)[C@H](C)NC1=O)[C@@H](C)CC` (stereo partly specified) (Ac-IEELI[ξhCys]AAQ[ξhCys]QQRKNEEALREL-NH2; linker 6-10 via mXylylene), the CI worked out at 0.6 in [7]; 0.8 in data set [9]; 0.8 in data set [10]; 0.8 in data set [19]; 0.6 in data set [20]. The “Ratio EC50” value in data set [8] amounted to 2.2; in data set [16] it was 2.5; in data set [18], 3.8. Further, the EC50 came out at 6 nM in data set [11]; 14 nM in data set [12]; 4.4 nM in [13]; 17.3 nM in data set [14]; 468 nM in data set [15]. Moreover, the Activity in data set [17] stood at 19.2 kDa. For the same compound, the 50% cytotoxic concentration (CC50) at 48 h in [21] was over 800000 nM.
